Measured values from patent publication US20250333745A1, “METHODS AND COMPOSITIONS FOR TREATMENT OF POLYCYSTIC KIDNEY DISEASE” (Regulus Therapeutics Inc., priority 2016, published 2025).

How the values were obtained:
Pkd2-KO mice = experiment: Previous study of tool anti-miR-17 in Pkd2-KO mice; type: in vivo, mouse; conditions: 20 mg/kg
Method: Previous studies using a research tool anti-miR-17 compound identified a role for miR-17 in PKD in two different models of PKD, the Pkd2-KO model (also known as the Pkhd1/cre; Pkd2^F/F model) and the Pcy model. The research tool modified oligonucleotide complementary to miR-17 was tested in mouse models of PKD. The anti-miR-17 compound was a fully phosphorothioated oligonucleotide 19 linked nucleosides in length (5′-CTGCACTGTAAGCACTTTG-3′; SEQ ID NO: 7), with DNA, 2′-MOE and S-cEt sugar moieties.
Pkd2-KO mice spontaneously develop polycystic kidney disease. Mice were treated with 20 mg/kg of tool anti-miR-17 compound or control oligonucleotide, or with PBS.

IFIT = experiment: In vivo acute assay in Sv129 mice; parameters: species or system mouse; conditions: single s.c. 300 mg/kg, four days, relative to PBS
Method: Additional in vivo toxicology assessments were performed by administering to normal mice (Sv129 mice) a single subcutaneous injection of 300 mg/kg of anti-miR-17 compound. After four days, mice were sacrificed, blood was collected for serum chemistry analysis, liver and spleen were weighed, and RNA was isolated from kidney and liver tissues. The expression level of a pro-inflammatory gene, interferon-induced protein with tetratricopeptide repeats (IFIT), was measured.
An in vivo assay was performed in normal, Sv129 mice. A single, subcutaneous dose of 300 mg/kg of RG4326 was administered. Included as control treatments were PBS, and two anti-miRs not related to miR-17, one known to be pro-inflammatory (positive control) and one that is not pro-inflammatory (negative control). Four days later, mice were sacrificed. Kidney and liver tissue was isolated for RNA extraction. The level of a gene known to be induced during an inflammatory response, IFIT, was measured and normalized to mouse GAPDH. A log 2 transformation of the fold change (Log2-FC) relative to PBS treatment was performed.

[1] = Pharmacokinetic profile after three 10 mg/kg subcutaneous injections in C57BL6 and JCK mice; type: in vivo, mouse; conditions: three 10 mg/kg s.c.; for % Parent: after 21 days
Method: The pharmacokinetic behavior of RG4326 was further characterized in wild type (C57B16) mice and PKD (JCK) mice. Groups of 5 mice each received three 10 mg/kg subcutaneous injections on each of three consecutive days. At one, four, seven, 14 and 21 days after the third and final injection, mice were sacrificed and plasma, kidney and liver samples were collected. For measurement of RG4326, RG4326 was extracted using liquid-liquid extraction (LLE) and/or solid-phase extraction (SPE), which was then analyzed for identity and concentration using ion-pairing-reversed-phase high performance liquid chromatography coupled with time-of-flight mass spectrometry (IP—RP-HPLC-TOF).

[2] = system: 18 pro-inflammatory genes; experiment: Ex vivo kidney slice assay; type: cell-based; conditions: rat kidney slice; 24-hour incubation; relative to PBS
Method: In in vitro assays, the potential for toxicity was assessed using a biochemical fluorescent binding assay (FBA) and a liver or kidney slice assay. The FBA is performed by incubating a fluorescent dye with each compound, and immediately measuring fluorescence. Highly fluorescent compounds have the potential to produce toxicity in vivo. The liver or kidney slice assay is performed by incubating a slice of tissue from a core liver sample isolated from rat. Following a 24-hour incubation, RNA is extracted from the tissue slice, and the expression levels of 18 pro-inflammatory genes are measured. An induction in pro-inflammatory gene expression indicates a potential for pro-inflammatory effects in vivo.
Ex vivo assays were performed with liver or kidney tissue slices. The liver or kidney slice assay is performed by incubating a slice of tissue from a core liver or kidney sample isolated from rat. Following a 24-hour incubation, RNA is extracted from the tissue slice, and the expression levels of 18 pro-inflammatory genes, including IFIT, are measured. A log 2 transformation of the fold change (Log2-FC) relative to PBS treatment was performed. An induction in pro-inflammatory gene expression indicates a potential for pro-inflammatory effects in vivo.

miR-106b = miR-106b luciferase reporter assay in HeLa cells; type: cell-based; conditions: anti-miR-17 at 100 nm
Method: Additional in vitro assays were conducted to further explore the potency of RG4326. A luciferase reporter assay was used to test the ability of RG4326 to inhibit the miR-17 family members miR-17, miR-20a, miR-93, and miR-106b. A luciferase reporter plasmid for each of miR-20a, miR-93, and miR-106b was constructed, with a fully complementary microRNA binding site in the 3′-UTR of the luciferase gene. HeLa cells were transfected with the microRNA mimic and its cognate luciferase reporter, followed by transfection with anti-miR-17 at a dose of 100 nm. […] As RG4326 is 100% complementary to the other miR-17 family members not tested, miR-20b and […], it is expected to inhibit these microRNAs as well.

[3] = Tissue accumulation in kidney and liver (kidney-to-liver ratio); type: in vivo, mouse; conditions: single dose 30 mg/kg, seven days
Method: Pharmacokinetic properties and tissue distribution of select compounds were assessed in wild type C57BL6 mice and JCK mice (an experimental model of PKD). Compound was administered to wild type mouse at a dose of 0.3, 3, or 30 mg/kg, or to JCK mice at a dose of 3, 30, or 100 mg/kg. After seven days, mice were sacrificed. Kidney and liver tissues were collected. Concentration of anti-miR-17 compound was measured in liver and kidney. Compounds that accumulate to a greater level in kidney, relative to liver (i.e., have a higher kidney-to-liver ratio) were preferred.
The miPSA was used to assess the potency of each compound, measured by the displacement score, in wild type and JCK mice. Tissue accumulation of anti-miR-17 compound was measured by extraction of compound using liquid-liquid extraction (LLE) and/or solid-phase extraction (SPE), followed by analysis of the identity and concentration of compound using ion-pairing-reversed-phase high performance liquid chromatography coupled with time-of-flight mass spectrometry (IP—RP-HPLC-TOF).
Wild type mice were administered a single dose of 3 mg/kg for the miPSA analysis, and a single dose of 30 mg/kg for the tissue accumulation analysis. JCK mice were administered a single dose of 30 mg/kg for both the miPSA and tissue accumulation analyses. Kidney tissue was collected seven days following the administration of anti-miR-17 compound. […] A higher kidney-to-liver ratio is generally preferred for a disease where the primary site of action is the kidney.

5′-CTGCACTGTAAGCACTTTG-3′ (all phosphorothioate, sugars by position and methylation of C not given here; DNA, 2'-MOE and S-cEt sugars) [Tool anti-miR-17, reference compound]
BUN and expression of kidney injury mRNA biomarkers Kim1 and Nga1 (in words) (Pkd2-KO mice): significantly reduced | serum creatinine level and cyst index (in words) (Pkd2-KO mice): trend toward reduced | kidney-to-body weight ratio reduced relative to control treatment (Pkd2-KO mice; p=0.017): 17%

COC1C(OP(=O)(S)OC[C@H]2O[C@@H](n3cnc4c(N)ncnc43)C(F)C2OP(=O)(S)OC[C@H]2O[C@@H](n3ccc(N)nc3=O)C(F)C2OP(=O)(S)OC[C@H]2O[C@@H](n3ccc(=O)[nH]c3=O)C(F)C2OP(=O)(S)OC[C@H]2O[C@@H](n3ccc(=O)[nH]c3=O)C(OC)C2OP(=O)(S)OC[C@]23O[C@@H](n4ccc(=O)[nH]c4=O)C(O[C@H]2C)C3OP(=O)(S)OC[C@]23O[C@@H](n4cnc5c(=O)[nH]c(N)nc54)C(O[C@H]2C)C3O)[C@@H](COP(=O)(S)OC2C3O[C@@H](C)[C@]2(COP(=O)(S)OC2C4O[C@@H](C)[C@]2(CO)O[C@H]4n2cnc4c(N)ncnc42)O[C@H]3n2cnc3c(=O)[nH]c(N)nc32)O[C@H]1n1ccc(N)nc1=O (stereo in doubt) [RG4326, ASGSCMAFCFUFUMUSGS]
In Vivo Acute Assay Kidney IFIT expression (Log2-FC) (IFIT): 0.34 (n = 1) Log2-FC | In Vivo Acute Assay Liver IFIT expression (Log2-FC) (IFIT): 0.21 ± 0.08 Log2-FC | AUC0-21 days ([1]; Normal C57BL6 mice, Kidney): 282 µg·days/g | C24 h ([1]; Normal C57BL6 mice, Kidney): 61.4 µg/g | % Parent ([1]; Normal C57BL6 mice, Kidney): >90% | AUC0-21 days ([1]; Normal C57BL6 mice, Liver): 17 µg·days/g | C24 h ([1]; Normal C57BL6 mice, Liver): 1.6 µg/g | % Parent ([1]; Normal C57BL6 mice, Liver): >90% | K/L Ratio (AUC) ([1]; Normal C57BL6 mice): 17 | K/L Ratio (C24 h) ([1]; Normal C57BL6 mice): 38 | AUC0-21 days ([1]; PKD JCK mice, Kidney): 497 µg·days/g | C24 h ([1]; PKD JCK mice, Kidney): 66.5 µg/g | % Parent ([1]; PKD JCK mice, Kidney): >90% | AUC0-21 days ([1]; PKD JCK mice, Liver): 37 µg·days/g | C24 h ([1]; PKD JCK mice, Liver): 5.9 µg/g | % Parent ([1]; PKD JCK mice, Liver): >90% | K/L Ratio (AUC) ([1]; PKD JCK mice): 13 | K/L Ratio (C24 h) ([1]; PKD JCK mice): 11 | parent compound remaining after 21 days ([1]; both plasma and tissues, C57B16 and JCK mice): over 90% | Ex Vivo Kidney Slices Assay Pro-Inflammatory Signature Score (Log2-FC) [2]: −0.30 ± 0.22 Log2-FC | Mean luciferase fold derepression, miR-106b (miR-106b): 17.7 | Kidney-to-Liver Ratio PKD Mice ([3]; JCK mice): 6.0 | Kidney-to-Liver Ratio Wild Type Mice ([3]; wild type mice): 9.8
